System: P. renovo
Test: plating assay to determine phosphorus source utilization capacity
Assay type: cell-based, Picochlorum renovo
Conditions: wild-type P. renovo, agar plates, 0.313 mM phosphite addition, 5-day outgrowth
Method: FIG. 1 depicts a plating assay to determine phosphorus source utilization capacity in P. renovo.
Microalgae were cultivated under constant illumination at […] of light, 2% CO2, and constant temperature of 33° C. These conditions were utilized to generate seed cultures for transformation and outgrowth of transformants to generate clonal isolates on agar plates. Media was comprised of a modified f/2 recipe, as described previously. For phosphorus source utilization analyses, agar plates were prepared as described previously, utilizing 8.75 g/L salinity, via dilution of seawater. […] Approximately 4.75×10^8 early log phase cells were plated and incubated under the above conditions; plates were imaged after 5 days of growth.

## O=[PH](O)O [phosphite, Sodium phosphite dibasic pentahydrate]
  bleaching compared to control with no added phosphorus source: noticeable bleaching occurred
  growth with phosphite as the sole phosphorus source: no growth was observed
